Data reported in patent US12138034B2, “Gastroretentive articles for alcohol sensing” (priority 2020, dated 2024).
Entries after “also recorded” stand apart in the source; their conditions may differ.

What was measured:
Type in all cases: physicochemical
[1] = Stability of DAAs in simulated gastric fluid (SGF, pH=2), HPLC
Description: FIGS. 17A-17C show stability of DAAs in simulated gastric fluid (SGF, pH=2), according to one set of embodiments. All DAAs were dissolved in SGF and placed in a shaking incubator (200 rpm, 37° C.). Samples were collected at defined time points for up to 4 weeks and analyzed by HPLC to quantify stability. […] FIG. 17A. Stability of sofosbuvir in SGF. FIG. 17B. Stability of daclatasvir in SGF. FIG. 17C. Stability of ribavirin in SGF. Error bars represent SD for n=3 samples in each group.

[2] = In vitro drug release from individual drug-polymer pills; settings: 37° C., 200 rpm, 50 mL fluid; varying PCL molecular weight, coating, drug loading, SA/V ratio, excipients
Excerpt: FIGS. 11A-11E show fabrication and in vitro release of direct-acting antivirals (DAAs) from individual drug-polymer pills, according to one set of embodiments. FIG. 11A. Drug-polymer pills are made by mixing drug with either silicone or poly(ε-caprolactone) (PCL) and then casting into a Petri dish or a three-dimensional (3-D) printed mold. Drug-silicone pills are extracted using a biopsy punch, and drug-PCL pills are extracted with a razor blade. Pills are then spray-coated with a pan coater. A cross-sectional image of a PCL-coated drug-PCL pill is shown. FIG. 11B. In vitro release of sofosbuvir from a drug pill in water with varying molecular weight of PCL. FIG. 11C. In vitro release of daclatasvir from a drug pill in water with varying molecular weight of PCL and PCL coating. FIG. 11D. In vitro release of ledipasvir from a drug pill in acetonitrile with varying silicone hardness. FIG. 11E. In vitro release of ribavirin from a drug pill in water with molecular weight of PCL and drug loading percentage. Error bars represent SD for n=3 samples.
LA-DAAS prototyping and in vitro drug release. LA-DAAS were assembled and in vitro drug release was evaluated by High-Performance Liquid Chromatography (HPLC) as previously described, with modifications including novel formulations for DAAs (FIGS. 14A-14B).(17) The following drugs were acquired: sofosbuvir (Hefei Hirisun Pharmatech Co., Ltd, Hefei, China), daclatasvir and ledipasvir (Hangzhou APIChem Technology Co, Ltd., Hangzhou, Zhejiang, China), and ribavirin (ChemShuttle, Hayward, CA). […] Drug loading percentages were determined relative to the final polymer mixture weight: sofosbuvir (50%), daclastasvir (40%), ledipasvir (40%), and ribavirin (40%). […] Drug concentrations were then analyzed using an Agilent 1260 Infinity II HPLC system. […] For evaluation of the safety and residence time of the LA-DAAS, the animals were clinically assessed twice a day for evidence of GI obstruction including inappetence, abdominal distension, lack of stool, and vomiting. […]

[3] = Stability of drug-polymer pills in SGF (polymer protection metric); settings: 3 days in SGF, 37° C., 200 rpm, n=3
Description: Drug-polymer pills were incubated in a shaking incubator at 37° C. and 200 rpm in 50 mL of SGF for 3 days with fluid replaced every day. Then, drug-polymer pills were transferred to acetonitrile for extraction of drug from the polymer pill. The average of extracted amount (n=3) was normalized to the average of extracted drug from drug-polymer pills placed directly in acetonitrile (n=3) to yield the polymer protection metric plotted. PCL protects 89.75% of sofosbuvir, 82.39% of daclatasvir, and 87.11% of ribavirin. Silicone protected 98.96% of ledipasvir.

| Structure (SMILES) | degradation in SGF ([1]; SGF pH=2, 37° C., 200 rpm, within 7 days) | in vitro release rate from drug-polymer pills (trend, words) [2] | polymer protection (drug extracted after SGF, normalized to pills placed directly in acetonitrile) ([3]; drug-PCL pill) | stability in SGF ([1]; SGF pH=2, no HPLC signal detected at t=0) | polymer protection (drug extracted after SGF, normalized to pills placed directly in acetonitrile) ([3]; drug-silicone pill) |
| --- | --- | --- | --- | --- | --- |
| CC(C)OC(=O)[C@H](C)N[P@](=O)(OC[C@H]1O[C@@H](n2ccc(=O)[nH]c2=O)[C@](C)(F)[C@@H]1O)Oc1ccccc1 [sofosbuvir] | 95% | increased as the molecular weight of PCL increased from 25,000 to 80,000; also recorded: Increasing the surface area to volume ratio of the pill also increased the sofosbuvir release rate; also recorded: increases the release rate of sofosbuvir; also recorded: Drug release increases as the SA/V ratio increases | 89.75% | – | – |
| NC(=O)c1ncn([C@@H]2O[C@H](CO)[C@@H](O)[C@H]2O)n1 [ribavirin] | – | increased at higher PCL molecular weight and with a higher drug loading percentage | 87.11% | – | – |
| COC(=O)N[C@H](C(=O)N1CC2(CC2)C[C@H]1c1ncc(-c2ccc3c(c2)C(F)(F)c2cc(-c4ccc5nc([C@@H]6[C@H]7CC[C@H](C7)N6C(=O)[C@@H](NC(=O)OC)C(C)C)[nH]c5c4)ccc2-3)[nH]1)C(C)C [ledipasvir] | – | faster release rate | – | degraded immediately in acid | 98.96% |
